Data reported in patent US20220402867A1, “SULFO-SUBSTITUTED BIARYL COMPOUND OR SALT THEREOF, PREPARATION METHOD THEREFOR, AND USE THEREOF” (Shanghai Litedd Co., Ltd., priority 2019, published 2022).
pEC50: −log10 of the molar value. Where two headings read alike, the source gives them in different places.

Assays:
[1] = Pharmacokinetic (PK) assay in mice; format: in vivo; conditions: CD-1 mice; for CL_obs: values marked **; for AUC(0-t) / Cmax / half-life / Vd / bioavailability: mouse, plasma; for Vd: read-out: Vss; for bioavailability: Po 5 mg/kg vs IV 1 mg/kg
Description: The PK of each compound was determined as follows: 6 CD-1 mice (obtained from Shanghai Lingchang Biotechnology Co., Ltd.) were divided into two groups, 3 mice in each group. One group was administered intravenously at a dose of 1 mg/kg, and the vehicle was 5% DMSO/40% PEG400/55% (20% 3-CD); one group was administered by oral gavage at a dose of 5 mg/kg, and the vehicle was DMSO/1% methylcellulose (1:99). Blood samples were collected from saphenous vein of lower leg in each group at 0, 0.083, 0.25, 0.5, 1, 2, 4, 6, 8 and 24 h after administration. Approximately 40 μL of the blood samples were collected into anticoagulant tubes containing EDTA-K2. Immediately after collection, the tubes were inverted at least 5 times to ensure uniform mixing, and then placed on ice. The blood samples collected at each time point were centrifuged at 4° C., 8000 rpm for 5 minutes to obtain plasma. Another 1.5 mL centrifuge tube was marked with the compound name, animal number, and time point, and the plasma was transferred to this tube. The plasma was stored at −80° C. until analysis.
Compound concentrations in plasma were determined by UPLC-MS/MS method, and the pharmacokinetic parameters were calculated by Phoenix WinNolin 6.4 pharmacokinetic software on the obtained data.

GST-RORγ LBD (263-509) = molecular target: T1, GST-RORγ LBD (263-509) (Homo sapiens, UniProt P51449); test: TR-FRET assay of agonistic activity on RORγ receptor; format: biochemical; conditions: for pEC50: TR-FRET, GST-RORγ LBD with Biotin-SRC1; for Emax %: maximum activation rate, TOP of fitted curve
T1 construct: GST-RORγ LBD ((263-509) (produced at ChemPartner))
T1 sequence (P51449 263-509): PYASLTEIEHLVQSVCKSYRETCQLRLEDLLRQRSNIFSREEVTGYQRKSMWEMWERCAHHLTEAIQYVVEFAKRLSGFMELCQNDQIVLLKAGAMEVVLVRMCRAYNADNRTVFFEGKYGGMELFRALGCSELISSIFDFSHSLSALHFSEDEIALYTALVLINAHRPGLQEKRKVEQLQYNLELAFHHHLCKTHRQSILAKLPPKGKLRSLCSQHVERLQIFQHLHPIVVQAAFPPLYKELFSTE
Description: A time-resolved fluorescence resonance energy transfer (TR-FRET) assay was used for the compounds of the present disclosure, to determine the agonistic activity of the compounds on the RORγ protein receptor. The agonistic activity is expressed by the concentration for 50% of maximal effect (EC50). The experiment was performed basically with reference to the methods described in ONCOIMMUNOLOGY, 2016, VOL. 5, NO. 12, e1254854.
1. Preparation of RORγ Basal Buffer
A 100 mL basal buffer was prepared, mixed homogeneously and stored for use;
The compounds of the examples shown in the table below were prepared into solutions with DMSO as the solvent, serially diluted at 3-fold dilution to 10 concentrations starting from 10 mM, and added to the corresponding wells of a 384-well plate with each concentration of each compound in duplicate;
a. A 75 nM solution of GST-RORγ LBD ((263-509) (produced at ChemPartner)) and a 4 nM solution of Biotin-SRC1 (Glsbiochem) were prepared with the above basal buffer. The two solutions were 1:1 mixed evenly, and 10 μL of the mixed solution was added into each well of the above 384-well plate. The plate was immediately centrifugated at 1000 rpm for 10 seconds; b. A 1 nM solution of Anti-GST Eu (Cisbio, #61GSTKLA) and a 50 nM solution of SA-APC (Cisbio, […]) were prepared with the above basal buffer. The two solutions were 1:1 mixed evenly, and 10 μL of the mixed solution was added into each well of the above 384-well plate. The plate was immediately centrifugated at 1000 rpm for 10 seconds; c. The resulting 384-well plate was incubated at room temperature for 15 minutes. Data were read on an Envision microplate reader, EC50 values and E max % were calculated.
a. Readings were taken at 665 nm and 615 nm wavelengths respectively on the Envision Microplate Reader, and the ratios between them were normalized. b. Calculation was carried out with the following equation: […]
wherein X is the reading of compounds, Min is the reading of the blank solution, and Max is the reading of 10 μM SRC. c. The concentration-response curve data were fitted by a four-parameter logistic nonlinear regression model, and Emax was the TOP value of the fitted curve.

[2] = Metabolic stability in mouse liver microsomes; format: in vitro ADME, CD-1 mice
From the text: (§1) According to standard methods of in vitro metabolic stability studies in the art, eg., the methods described in Kerns, Edward H. and Di Li (2008). Drug-like Properties: Concepts, Structure Design and Methods: from ADME to Toxicity Optimization. San Diego: Academic Press; Di, Li et al., Optimization of a Higher Throughput Microsomal Stability Screening Assay for Profiling Drug Discovery Candidates, J. Biomol. Screen. 2003, The method described in 8(4), 453, the liver microsomal metabolic stability test of the compounds of the present disclosure was carried out analogously as follows.
(§2) The incubation system contained 0.5 mg protein/mL microsomes, cofactors, and PBS, was pre-incubated at 37° C. for 3 min, and then added the substrate (i.e., the test compounds) to initiate the reaction. Samples were taken at 0, 1, 5, 10, 15, 20, 30 and 60 min from the start of the reaction, and an appropriate terminator was added to terminate the reaction.
(§3) The terminator was an ice acetonitrile solution containing 100 ng/mL tolbutamide and 100 ng/mL labetalol.
(§4) Sample treatment (n=3): each appropriate sample was added, vortexed and centrifuged at high speed. The supernatants were collected, and the substrate was detected by HPLC-MS/MS. The peak area at the 0 min was taken as 100%. The peak areas at other time points were converted to percentage of the remaining amount. The natural logarithms of the percentage of remaining amount at each time point was plotted against the incubation time, and the slope (−k) was calculated by linear regression. Then, Clint (uL/min/mg) and half-life (T½, min) of the compounds were calculated following the equation of the inherent clearance rate (Clint)=(k* volume of incubation solution)/mass of liver microsomes.

[3] = molecular target: T2, RORγt (RORγ-LBD chimeric receptor) (Homo sapiens, UniProt P51449); test: Luciferase reporter gene assay of RORγt agonistic activity in HEK293T cells; format: cell-based; parameters: Emax: dose or concentration left out as unconfirmed; conditions: for Emax: HEK-293T
T2 construct: host or cells: HEK293T
T2 sequence (P51449 269-508 limits assumed): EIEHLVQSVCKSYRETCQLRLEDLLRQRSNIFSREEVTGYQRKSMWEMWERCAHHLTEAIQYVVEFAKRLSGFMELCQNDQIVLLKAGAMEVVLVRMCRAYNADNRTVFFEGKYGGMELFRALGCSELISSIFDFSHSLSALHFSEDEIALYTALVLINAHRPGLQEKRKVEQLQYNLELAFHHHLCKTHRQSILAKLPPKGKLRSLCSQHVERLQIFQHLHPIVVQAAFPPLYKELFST
From the text: This assay was basically carried out according to the method described in the literature ONCOIMMUNOLOGY, 2016, VOL. 5, NO. 12, e1254854.
The RORγ-LBD coding sequence was inserted into pBIND plasmid (Promega, E1581). This expression vector and a reporter vector (pGL4.35 carrying a stably integrated luciferase reporter gene driven by GAL4 promoter) were co-expressed in HEK293T host cells. When the agonist binds to the corresponding chimeric receptor, the chimeric receptor binds to the GAL4 binding site on the reporter gene carrier and stimulates reporter gene expression. The agonistic activity of the compound on RORγ was determined according to the intensity of the chemiluminescence signal.
1.1 All test compounds were serially diluted at 3-fold dilution with DMSO, with 10 serial dilutions starting from 10 mM; LIT-00093 solution was prepared similarly. […] 1.4 The compound plate was sealed and shaken for 5 min.
Cells were cultured according to ATCC standard operation, and 6*10^6 HEK293T cells were seeded into 100 mm cell culture dishes, cultured overnight in a 37° C., 5% CO2 incubator, and then transfected. Compounds of corresponding concentrations were added for treatment, and the Steady-Glo™ kit (Lot E 2520) was used for further detection.
Chemiluminescence values were detected with Envision 2104; EC50 values were calculated.
% Activity was calculated with the following equation: […]
RLU: […] R L Upositive: average value of positive control R L Uvehicle: average value of negative control
The log values of the compound concentration and % Activity were fitted using Graphad 8.0, to calculate EC50s of the compounds.

[4] = Metabolic stability in human liver microsomes; format: in vitro ADME; conditions: for microsomal CLint: 0.5 mg protein/mL
From the text: as §1, §2, §3, §4

Row | CL_obs ([1]; IV 1 mg/kg) | AUC(0-t) ([1]; IV 1 mg/kg) | Cmax ([1]; IV 1 mg/kg) | half-life ([1]; IV 1 mg/kg) | Vd ([1]; IV 1 mg/kg, values marked *) | bioavailability [1] | AUC(0-t) ([1]; Po 5 mg/kg) | Cmax ([1]; Po 5 mg/kg) | half-life ([1]; Po 5 mg/kg) | pEC50 (GST-RORγ LBD (263-509)) | Emax % (GST-RORγ LBD (263-509)) | SMILES | Emax [3] | half-life [4] | microsomal CLint [4] | % Remaining (T = 60 min) [4] | further results
1 | 2.40** mL/min/kg | 6880 ng·h/mL | 1340 ng/mL | 3.56 h | 0.83 L/kg | 32.8% | 9140 ng·h/mL | 700 ng/mL | 12.3 h |  |  | COC[C@H](C(=O)Nc1cc(Cl)c(-c2ccc(S(=O)(=O)C3CC3)cc2)c(Cl)c1)c1ccc(S(C)(=O)=O)cc1 (single isomer, unassigned) [Example 35, (S)—N-(2,6-dichloro-4′-(cyclopropylsulfonyl)-[1,1′-biphenyl]-4-yl)-3-methoxy-2-(4-(methylsulfonyl)phenyl)propanamide or (R)—N-(2,6-dichloro-4′-(cyclopropylsulfonyl)-[1,1′-biphenyl]-4-yl)-3-methoxy-2-(4-(methylsulfonyl)phenyl)propanamide] |  |  |  |  | 
2 | 7.21** mL/min/kg | 2170 ng·h/mL | 1320 ng/mL | 2.2 h | 1.27 L/kg | 15.8% | 1440 ng·h/mL | 294 ng/mL | 2.6 h | 7.56 | 197.0% | CS(=O)(=O)c1ccc(C(CO)C(=O)Nc2cc(Cl)c(-c3ccc(S(=O)(=O)C4CC4)cc3)c(Cl)c2)cc1 (single isomer, unassigned) [Example 37, (S)—N-(2,6-Dichloro-4′-(cyclopropylsulfonyl)-[1,1′-biphenyl]-4-yl)-2-(4-(methylsulfonyl)phenyl)-3-hydroxypropionamide or (R)—N-(2,6-dichloro-4′-(cyclopropylsulfonyl)-[1,1′-biphenyl]-4-yl)-2-(4-(methylsulfonyl)phenyl)-3-hydroxypropionamide] |  |  |  |  | 
3 | 8.22** mL/min/kg | 2050 ng·h/mL | 1080 ng/mL | 3.7 h | 1.53 L/kg | 17.1% | 1720 ng·h/mL | 400 ng/mL | 3 h | 7.87 | 181.3% | CCS(=O)(=O)c1ccc(C(CO)C(=O)Nc2cc(Cl)c(-c3ccc(S(=O)(=O)C4CC4)cc3)c(Cl)c2)cc1 (single isomer, unassigned) [Example 39, (S)—N-(2,6-dichloro-4′-(cyclopropylsulfonyl)-[1,1′-biphenyl]-4-yl)-2-(4-(ethylsulfonyl)phenyl)-3-hydroxypropionamide or (R)—N-(2,6-dichloro-4′-(cyclopropylsulfonyl)-[1,1′-biphenyl]-4-yl)-2-(4-(ethylsulfonyl)phenyl)-3-hydroxypropionamide] |  |  |  |  | 
4 |  |  |  |  |  |  |  |  |  |  |  | CS(=O)(=O)c1ccc(-c2c(Cl)cc(NC(=O)Cc3ccc(S(=O)(=O)CCO)cc3)cc2Cl)cc1 [Example 14, N-(2,6-Dichloro-4′-(methylsulfonyl)-[1,1′-biphenyl]-4-yl)-2-(4-(2-hydroxyethylsulfonyl)phenyl)acetamide] | 40.7% | 1.55 h | 14.9 µL/min/mg | 61.7% | % Remaining (T = 60 min) ([2]; 60 min): 87.3%; half-life ([2]; CD-1): > 2.42 h; microsomal CLint ([2]; CD-1, 0.5 mg protein/mL): < 9.6 µL/min/mg; pEC50 [3]: 6.65
5 |  |  |  |  |  |  |  |  |  |  |  | CC(C)Cc1ccc(-c2c(Cl)cc(NC(=O)Cc3ccc(S(C)(=O)=O)cc3)cc2Cl)cc1C#N [LIT-00093, reference compound] | 83.9% | 0.0783 h | 295 µL/min/mg | 0% | pEC50 ([3]; HEK293T, GAL4 luciferase reporter, read-out: EC50): 6.94
6 |  | 256 ng·h/mL | 353 ng/mL | 2.63 h |  | 21% | 269 ng·h/mL | 52.6 ng/mL | 5.35 h |  |  | CC(C)(C[C@H]1CN(S(=O)(=O)c2cccc(C(F)(F)F)c2)c2cc(-c3cc(F)cc(OC(F)F)c3)ccc2O1)C(=O)O [LYC-55716, reference compound] |  |  |  |  | Vd ([1]; IV 1 mg/kg): 7.23 L/kg
